Measured values published in BindingDB's records for doi:10.1016/j.bmc.2007.07.054 (Yeungnam University, 2007).

Legend:
Phospholipase A2 = Phospholipase A2 (Rattus norvegicus, UniProt P04055); assay: Inhibition of rat cloned sPLA2-1B expressed in HEK293 cells
[1] = target: T1, Cytosolic phospholipase A2 (Homo sapiens, UniProt P47712); assay: Inhibition of human cloned cPLA2 expressed in HEK293 cells
T1 sequence (P47712 whole entry): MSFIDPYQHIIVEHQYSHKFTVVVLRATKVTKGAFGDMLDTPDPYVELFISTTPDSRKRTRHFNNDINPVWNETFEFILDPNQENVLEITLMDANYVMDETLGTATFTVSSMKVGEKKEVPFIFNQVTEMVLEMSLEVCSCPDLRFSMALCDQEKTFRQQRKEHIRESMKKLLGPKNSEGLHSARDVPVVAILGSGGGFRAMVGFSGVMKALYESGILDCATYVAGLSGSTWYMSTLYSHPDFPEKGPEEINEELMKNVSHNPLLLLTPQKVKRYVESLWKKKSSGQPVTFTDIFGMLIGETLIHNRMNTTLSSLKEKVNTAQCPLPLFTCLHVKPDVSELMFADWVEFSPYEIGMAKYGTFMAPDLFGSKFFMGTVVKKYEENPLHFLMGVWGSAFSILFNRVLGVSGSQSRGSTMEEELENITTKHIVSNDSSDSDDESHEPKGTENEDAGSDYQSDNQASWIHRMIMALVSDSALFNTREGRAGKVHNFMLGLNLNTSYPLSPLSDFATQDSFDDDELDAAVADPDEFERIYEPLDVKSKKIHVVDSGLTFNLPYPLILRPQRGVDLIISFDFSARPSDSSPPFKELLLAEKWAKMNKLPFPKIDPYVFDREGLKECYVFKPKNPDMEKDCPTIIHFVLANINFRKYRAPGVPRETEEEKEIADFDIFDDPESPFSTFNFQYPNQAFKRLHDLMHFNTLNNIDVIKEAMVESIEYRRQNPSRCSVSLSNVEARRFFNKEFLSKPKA

[2] = target: T2, Group 10 secretory phospholipase A2 (Homo sapiens, UniProt O15496); assay: Inhibition of human cloned sPLA2-10 expressed in HEK293 cells
T2 sequence (O15496 whole entry): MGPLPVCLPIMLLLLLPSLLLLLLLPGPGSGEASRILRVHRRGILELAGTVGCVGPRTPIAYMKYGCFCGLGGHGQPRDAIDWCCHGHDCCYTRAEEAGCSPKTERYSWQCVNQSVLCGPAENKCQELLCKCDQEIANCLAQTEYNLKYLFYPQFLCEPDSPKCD

Measured: IC50

Sequence of Phospholipase A2 (P04055 whole entry): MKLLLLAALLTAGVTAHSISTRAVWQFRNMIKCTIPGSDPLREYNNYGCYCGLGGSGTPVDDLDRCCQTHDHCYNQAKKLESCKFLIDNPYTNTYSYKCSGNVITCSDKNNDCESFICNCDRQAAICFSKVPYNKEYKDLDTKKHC

O=c1cc(O)cc2oc(-c3ccc(O)c(-c4c(O)cc(O)c5c(=O)cc(-c6ccc(O)cc6)oc45)c3)cc(O)c1-2
> 100 µM: all assays above

O=c1cc(O)cc2oc(-c3ccc(Oc4cc(-c5cc(O)c6c(=O)cc(O)cc-6o5)ccc4O)cc3)cc(O)c1-2
> 100 µM: all assays above
